Reference: patent US10166199B2, “Transdermal patch comprising a ropivacaine formulation” (BUZZZ PHARMACEUTICALS LIMITED, priority 2013, dated 2019)
Like-named read-outs stand apart in the source and are kept apart here. One block for each molecule: values may come before it.

Assays:
[1] = Approximate ropivacaine solubility in excipients, assessed visually; format: physicochemical
Description: Approximate solubilities were assessed visually by gradual addition of ropivacaine to a known volume of excipient at room temperature until saturation was observed.
(§1) Further excipients were assessed for ropivacaine solubility and compatibility with Duro-Tak® adhesive 87-900A. Adhesive compatibility was assessed by mixing ropivacaine (4% (w/w)) and excipient (5% (w/w)) with Duro-Tak® 87-900A.

[2] = Excipient compatibility with Duro-Tak 87-900A adhesive; format: physicochemical; details: ropivacaine 4% (w/w) and excipient 5% (w/w) in Duro-Tak 87-900A; miscible, no precipitate after 72 hours
Description: as §1

[3] = local anaesthetic during cataract surgery, cited from earlier work
[4] = solubility of ropivacaine in the named excipient, gradual addition at room temperature, visual

Molecule: CO[C@H]1CO[C@H]2[C@@H]1OC[C@H]2OC [DMI, dimethylisosorbide]
% Solubility (ropivacaine in candidate excipient) [1, 4]: 2.8-3.6 % w/v

Molecule: CCCCCCCC/C=C\CCCCCCCC(=O)OCC(O)CO (stereo not shown) [Capmul-GMO-50, glycerol monooleate]
900A Compatible [2]: no

Molecule: CCCN1CCCC[C@H]1C(=O)Nc1c(C)cccc1C [ropivacaine, (2S)—N-(2,6-dimethylphenyl)-1-propyl-2-piperidinecarboxamide]
potency relative to lidocaine ([3]; dose-for-dose): as much as four times as potent as lidocaine
half life relative to lidocaine [3]: longer half life

Molecule: propylene glycol dicaprylate/dicaprate [Labrafac PG]
% Solubility (ropivacaine in candidate excipient) [1]: 1.3-1.8 % w/v

Results, then the molecule that gave them:

900A Compatible [2]: yes
Molecule: sorbitan trioleate [Span 85]

900A Compatible [2]: no
Molecule: sorbitan monooleate [Span 80]

% Solubility (ropivacaine in candidate excipient) [1]: 1.2-2.1 % w/v
Molecule: apricot kernel oil PEG-6 esters [Labrafil M 1944 CS]

900A Compatible [2]: yes
% Solubility (ropivacaine in candidate excipient) [1, 4]: 4.1-4.6 % w/v
Molecule: CCOCCOCCO [Transcutol P, ethoxy diglycol]
